Laboratory results from patent publication US20090035287A1, “ATRIAL NATRIURETIC PEPTIDE (ANP) SPLICE VARIANTS AND METHODS OF USING SAME” (priority 2005, published 2009).
Bridge positions count the residues as written; N and C are the ends. Ends that are not written are not given here.

How the values were obtained:
[1] = test system: spontaneously hypertensive rats (SHR); assay: Renal and cardiovascular effects in anesthetized spontaneously hypertensive rats, 30-min intravenous infusion; type: in vivo, rat; conditions: for heart rate change: i.v. 30-min infusion
Protocol: The assay was performed with anesthetized spontaneously hypertensive rats (SHR) following intravenous administration of the various ANP-proteins by a 30-min infusion.
Male Wistar-Okamoto derived spontaneously hypertensive rats (SHR) provided by National Laboratory Animal Center were used. Space allocation for 6 rats was 45×23×15 cm. All animals were maintained in a controlled temperature (23° C.-24° C.) and humidity (60%-70%) environment with 12 hours light dark cycles for at least one week in MDS Pharma Services—Taiwan Laboratory prior to use. Free access to standard lab chow (Laboratory Rodent Diet MF-18; Oriental Yeast Co., Ltd. Japan) and RO water was granted. All aspects of this work including housing, experimentation and disposal of animals were performed in general accordance with the Guide for the Care and Use of Laboratory Animals (National Academy Press, Washington, D.C., 1996).
Groups of 5 male rats (SHR) weighing 250-300 g were employed. Rats were anaesthetized with Inactin (120 mg/kg i.p.). The left carotid artery, jugular vein, and bladder were cannulated with polyethylene (PE50) catheters. The arterial cannula was connected via a Statham (P 23×L) pressure transducer to a NEC/San-Ei Type 366 polygraph for direct mean arterial blood pressure measurements. Heart rate was derived from pulse pressure signals and monitored on a Data Acquisition and Analytic System (Power Lab 8/SP, AD Instruments, Australia). The body temperature was kept at 37° C. using a thermostat-controlled hot plate. The animals were primed with 1 ml 2.5% dextrose+0.45% NaCl intravenously, followed by continuous infusion of the same solution at a rate of 2.4 ml/hr with an infusion pump throughout the experiments. After an equilibration period of 30 min, a 30-min control urine sample was collected. Test compounds were dissolved in 2.5% dextrose+0.45% NaCl and delivered by infusion for 30 min at 2.4 ml/hr. […] The infusion rate was 2.4 ml/hr. Urine samples were collected through the catheter during infusion of peptides and in the two 30-min post-peptide periods. Urinary Na^+ concentration was measured with an atomic absorption spectrometer. All values represent mean±SEM and Dunnett's test was applied for comparison between corresponding time points for each drug-treated and control groups. Differences were considered significant at P<0.05.

[2] = target: T1, membrane-bound guanylyl cyclase (Rattus norvegicus, UniProt P18910); assay: cGMP accumulation after activation of membrane-bound guanylyl cyclase in isolated rat lung membranes; type: biochemical
T1 construct: from tissue; host or cells: lung of Wistar rats (membrane preparation)
T1 sequence (P18910 29-1057): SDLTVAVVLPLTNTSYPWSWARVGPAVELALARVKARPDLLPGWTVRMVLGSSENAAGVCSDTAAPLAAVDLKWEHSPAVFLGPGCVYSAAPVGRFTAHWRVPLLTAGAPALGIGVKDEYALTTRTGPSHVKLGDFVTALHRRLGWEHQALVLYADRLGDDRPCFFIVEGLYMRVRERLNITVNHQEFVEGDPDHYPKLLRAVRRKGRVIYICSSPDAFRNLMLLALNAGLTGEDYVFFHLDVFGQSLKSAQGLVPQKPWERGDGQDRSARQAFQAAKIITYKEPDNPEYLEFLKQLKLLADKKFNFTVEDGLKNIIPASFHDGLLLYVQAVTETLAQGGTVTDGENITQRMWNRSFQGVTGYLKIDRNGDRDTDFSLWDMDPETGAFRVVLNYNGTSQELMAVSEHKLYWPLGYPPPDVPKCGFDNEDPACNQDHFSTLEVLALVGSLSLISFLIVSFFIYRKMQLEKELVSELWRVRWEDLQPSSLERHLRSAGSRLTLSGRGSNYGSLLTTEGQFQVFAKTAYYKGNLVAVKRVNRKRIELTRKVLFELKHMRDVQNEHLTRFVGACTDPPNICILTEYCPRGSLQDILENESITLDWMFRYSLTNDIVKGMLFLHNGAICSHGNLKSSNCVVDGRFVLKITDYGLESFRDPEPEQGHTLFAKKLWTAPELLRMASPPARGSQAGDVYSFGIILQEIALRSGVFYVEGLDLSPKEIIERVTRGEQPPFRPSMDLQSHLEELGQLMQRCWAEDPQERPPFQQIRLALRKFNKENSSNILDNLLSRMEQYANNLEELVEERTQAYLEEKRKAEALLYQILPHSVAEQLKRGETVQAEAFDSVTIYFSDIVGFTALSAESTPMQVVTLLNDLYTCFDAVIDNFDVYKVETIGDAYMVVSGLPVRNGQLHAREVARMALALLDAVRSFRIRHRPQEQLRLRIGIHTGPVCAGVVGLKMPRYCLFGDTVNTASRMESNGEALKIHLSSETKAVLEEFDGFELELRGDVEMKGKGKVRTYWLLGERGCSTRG
Protocol: The agonist-like activity of the ANP variant peptides was evaluated by in vitro assays designed to measure cGMP accumulation after activation of membrane-bound guanylyl cyclase. Guanylyl cyclases (GC) are a family of enzymes (EC 4.6.1.2) that catalyse the formation of the second messenger cyclic GMP (cGMP) from GTP. Activation of GCs leads to an increase in the concentration of the intracellular messenger molecule cGMP. GCs are subdivided into soluble GCs and GCs that are membrane-bound and linked to a receptor. Activation occurs through binding of nitric oxide (NO) and peptide hormones, respectively. Six different isoforms of membrane-bound GC (GC-A, GC-B, GC-C, GC-D, GC-E and GC-F) are known. The guanylyl cyclase A (GC-A) isoform acts as the receptor for the natriuretic peptides ANP and BNP.
As ANP is known to stimulate GC-A, the effect of known and variant ANP peptides on guanlyl cyclase was examined. The procedure employed was essentially as described in Glover V, et al., 1995 Life Sci. 57(22): 2073-2079; Nashida T, Imai A and Shimomura H (2000), Mol Cell Biochem. 208(1-2): 27-35. Briefly, membrane-bound guanylyl cyclase isolated from the lung of Wistar rats was used. […] The reaction was terminated by addition of 1 N HCl and the supernatant evaluated for cGMP level by EIA. Enzyme activity was determined spectrophotometrically by measuring the formation of cGMP. […]

[3] = target: T2, membrane-bound guanylyl cyclase isolated from the lung of Wistar rats (rat, UniProt P18910 29-1057); assay: cell-based or functional assay
T2 sequence (looked up): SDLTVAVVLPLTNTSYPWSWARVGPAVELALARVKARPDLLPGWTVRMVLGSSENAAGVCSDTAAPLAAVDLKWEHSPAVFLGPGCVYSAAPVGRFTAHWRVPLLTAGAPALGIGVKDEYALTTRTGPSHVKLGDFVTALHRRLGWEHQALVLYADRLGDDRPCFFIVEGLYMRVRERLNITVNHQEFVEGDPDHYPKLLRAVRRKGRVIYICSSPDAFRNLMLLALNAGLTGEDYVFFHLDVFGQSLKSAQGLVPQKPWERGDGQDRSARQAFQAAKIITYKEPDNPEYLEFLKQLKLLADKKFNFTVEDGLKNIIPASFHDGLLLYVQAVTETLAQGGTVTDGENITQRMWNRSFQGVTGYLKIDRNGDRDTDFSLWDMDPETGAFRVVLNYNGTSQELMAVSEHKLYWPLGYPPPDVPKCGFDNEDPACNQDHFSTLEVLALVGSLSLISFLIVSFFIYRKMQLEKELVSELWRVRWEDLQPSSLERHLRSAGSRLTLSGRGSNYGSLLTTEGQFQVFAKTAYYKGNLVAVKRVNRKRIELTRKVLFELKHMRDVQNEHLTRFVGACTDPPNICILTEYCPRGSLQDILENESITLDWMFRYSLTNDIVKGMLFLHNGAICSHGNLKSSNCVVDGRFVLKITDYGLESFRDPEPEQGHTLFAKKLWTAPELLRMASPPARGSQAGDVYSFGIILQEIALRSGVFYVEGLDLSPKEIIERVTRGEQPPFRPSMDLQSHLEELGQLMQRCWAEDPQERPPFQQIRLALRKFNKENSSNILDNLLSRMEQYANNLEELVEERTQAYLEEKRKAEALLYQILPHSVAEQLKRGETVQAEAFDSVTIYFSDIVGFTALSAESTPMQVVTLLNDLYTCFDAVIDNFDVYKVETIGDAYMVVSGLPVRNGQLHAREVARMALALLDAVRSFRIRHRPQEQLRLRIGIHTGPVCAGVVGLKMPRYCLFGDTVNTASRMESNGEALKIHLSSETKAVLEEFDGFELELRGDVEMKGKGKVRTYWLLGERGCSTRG

[4] = i.v. infusion 1 μg/kg/min × 30 min
[5] = i.v. infusion 3 μg/kg/min × 30 min
[6] = i.v. infusion 1 and 3 μg/kg/min × 30 min

## SLRRSSCFGGRMDRIGAQSGLGCNSFRELNWLRPLMEQPLLSLME (disulfide 7-23) [ANP-45]
[1]
  heart rate change: decrease in heart rate
[1]; [4]
  absolute change of mean arterial pressure (MAP-infusion minus MAP-baseline): −28 mmHg
[1]; [5]
  absolute change of mean arterial pressure (MAP-infusion minus MAP-baseline): −37 mmHg
  urine volume (diuresis): pronounced diuresis, similar in magnitude to that of Carperitide
[1]; [6]
  urinary sodium excretion (natriuresis): dose-dependent increase in urinary sodium excretion
  urine volume (diuresis), dose dependence: dose-dependent increase in urine volume
[2]
  cGMP accumulation, agonist activity in words: level comparable to the known control molecules

## CC[C@H](C)[C@@H]1NC(=O)[C@H](CCCNC(=N)N)NC(=O)[C@H](CC(=O)O)NC(=O)[C@H](CCSC)NC(=O)[C@H](CCCNC(=N)N)NC(=O)CNC(=O)CNC(=O)[C@H](Cc2ccccc2)NC(=O)[C@@H](NC(=O)[C@H](CO)NC(=O)[C@H](CO)NC(=O)[C@H](CCCNC(=N)N)NC(=O)[C@H](CCCNC(=N)N)NC(=O)[C@H](CC(C)C)NC(=O)[C@@H](N)CO)CSSC[C@@H](C(=O)N[C@@H](CC(N)=O)C(=O)N[C@@H](CO)C(=O)N[C@@H](Cc2ccccc2)C(=O)N[C@@H](CCCNC(=N)N)C(=O)N[C@@H](Cc2ccc(O)cc2)C(=O)O)NC(=O)CNC(=O)[C@H](CC(C)C)NC(=O)CNC(=O)[C@H](CO)NC(=O)[C@H](CCC(N)=O)NC(=O)[C@H](C)NC(=O)CNC1=O [Carperitide, reference compound]
[1]
  heart rate change: less pronounced

## CC[C@H](C)[C@@H]1NC(=O)[C@H](CCCNC(=N)N)NC(=O)[C@H](CC(=O)O)NC(=O)[C@H](CCSC)NC(=O)[C@H](CCCNC(=N)N)NC(=O)CNC(=O)CNC(=O)[C@H](Cc2ccccc2)NC(=O)[C@@H](NC(=O)[C@H](CO)NC(=O)[C@H](CO)NC(=O)[C@H](CCCNC(=N)N)NC(=O)[C@H](CCCNC(=N)N)NC(=O)[C@H](CC(C)C)NC(=O)[C@@H](N)CO)CSSC[C@@H](C(=O)N[C@@H](CC(N)=O)C(=O)N[C@@H](CO)C(=O)N[C@@H](Cc2ccccc2)C(=O)N[C@@H](CCCNC(=N)N)C(=O)N[C@@H](Cc2ccc(O)cc2)C(=O)O)NC(=O)CNC(=O)[C@H](CC(C)C)NC(=O)CNC(=O)[C@H](CO)NC(=O)[C@H](CCC(N)=O)NC(=O)[C@H](C)NC(=O)CNC1=O [ANP-28, reference compound]
[1]; listed as ANP28
  heart rate change: decrease in heart rate

## TAPRSLRRSSCFGGRMDRIGAQSGLGCNSFRELNWLRPLMEQPLLSLME (disulfide 11-27) [ANP-49]
[1]
  heart rate change: decrease in heart rate
[1]; [4]
  absolute change of mean arterial pressure (MAP-infusion minus MAP-baseline): −1 mmHg
  urine volume (diuresis): such effect was not observed
[1]; [5]
  absolute change of mean arterial pressure (MAP-infusion minus MAP-baseline): −23 mmHg
  urine volume (diuresis): even higher increase in urine volume relative to Carperitide
[2]
  cGMP accumulation, agonist activity in words: level comparable to the known control molecules

## TAPRSLRRSSCFGGRMDRIGAQSGLGCNSFRELNWLRPLMEQPLLSLME (disulfide 11-27) [ANP-49 (variant)]
[3]
  cGMP accumulation after activation of membrane-bound guanylyl cyclase (EIA), EC50: 138 nM

## SLRRSSCFGGRMDRIGAQSGLGCNSFRELNWLRPLMEQPLLSLME (disulfide 7-23) [ANP-45 (variant)]
[3]
  cGMP accumulation after activation of membrane-bound guanylyl cyclase (EIA), EC50: 86.3 nM
